From patent US11897868B2, “Heterocyclic inhibitors of PCSK9” (CARDIO THERAPEUTICS PTY LTD, priority 2017, dated 2024)

What was measured:
[1] = target: T1, PCSK9 and the LDL receptor (Homo sapiens, UniProt Q8NBP7); experiment: CircuLex PCSK9-LDLR in vitro binding assay; settings: His-tagged PCSK9 wild type, 8 point concentration curves, absorbance 450 nm and 540 nm; for IC50: read-out: Inhibition of PCSK9-LDLR binding
T1 construct: purchased CircuLex CY-8150
Protocol: Compounds were assayed for their ability to inhibit the binding between PCSK9 and the LDL receptor using a CircuLex PCSK9-LDLR in vitro binding assay kit (Catalog #CY-8150. The procedure employed the reagents and buffers included in the kit as follows.
88 μL of 1× reaction buffer were placed into each well. 5 μL of test compounds in 20% DMSO were added into each well. 10 mM solutions of test compounds in DMSO were diluted by 3-fold series to give 8 point concentration curves. The compounds were then diluted 20-fold with the reaction buffer. To each well was then added 7 μL of His-tagged PCSK9 wild type solution (1000 ng/mL) into each well. The plate was then covered with a plate sealer and incubated at room temperature for 3 hours, shaking at 300 rpm on an orbital microplate shaker. The test solutions were washed 4 times with 350 μL wash buffer. 100 μL of biotinylated anti-His-tag monoclonal antibody was added to each well. The plate was covered with a plate sealer, and incubated at room temperature for 1 hour, shaking at 300 rpm. The test solutions were washed 4 times with 350 μL wash buffer. 100 μL of HRP-conjugated streptavidin was added to each well. The plate was covered with a plate sealer, and incubated at room temperature for 20 min, shaking at 300 rpm.
The test solutions were washed 4 times with 350 μL wash buffer. 100 μL of substrate reagent were added into each well. The plate was covered with a plate sealer, and incubated at room temperature for 15 min, shaking at 300 rpm. Finally, 100 μL of the stop solution was added to each well in the same order as the previously added substrate reagent. Absorbance was measured at 450 nm and 540 nm and IC50 curves were plotted.

[2] = target: T2, PCSK9-D374Y (Homo sapiens, UniProt Q8NBP7, D374Y); experiment: LDL uptake in HepG2 cells treated with PCSK9-D374Y (cell-based assay); settings: HepG2 cells with PCSK9-D374Y (2 μg/ml), 16 hours, Bodipy FL LDL 4 hours, FIG. 3
T2 construct: host or cells: HepG2 cells (the protein is added from outside; LDLR is endogenous)
Protocol: Human liver cells (hepG2) express the LDL receptor, which can take up fluorescent-labeled LDL into the cell. PCSK9 binds to LDL receptor, wherein the complex is internalized and degraded in the lysosome, resulting in lowered LDL uptake in hepG2 cells. Inhibition of PCSK9 […] lowers plasma (circulating) LDL-C by increasing LDL incorporation into the cell.
The cell-based assay was conducted as follows, according to the procedure outlined in Xu and Liu, J Bioequiv Availab 2013, 5, 7. […] Human liver HepG2 cells were seeded in a 96 well plate at 2×10^5 cells/ml and incubated overnight. PCSK9-D374Y (2 μg/ml) was added, along with test compounds. The wells were incubated for 16 hours, whereupon the medium was replaced with fresh medium containing 10 μg/ml Bodipy FL LDL, and the wells were incubated for a further 4 hours. The wells were washed using warm PBS and then the LDL uptake was quantified on a fluorescent plate reader at excitation/emission wavelengths of 485 and 530 nm respectively.
FIG. 2 indicates the decrease in LDL update in HepG2 cells comparing untreated and PCSK9-D374Y gain-of-function treated cells. Test compounds were measured at their ability to increase LDL uptake at concentrations of 0.1 and 1 μM and the results shown in FIG. 3.

T2 sequence (Q8NBP7 153-692 D374Y): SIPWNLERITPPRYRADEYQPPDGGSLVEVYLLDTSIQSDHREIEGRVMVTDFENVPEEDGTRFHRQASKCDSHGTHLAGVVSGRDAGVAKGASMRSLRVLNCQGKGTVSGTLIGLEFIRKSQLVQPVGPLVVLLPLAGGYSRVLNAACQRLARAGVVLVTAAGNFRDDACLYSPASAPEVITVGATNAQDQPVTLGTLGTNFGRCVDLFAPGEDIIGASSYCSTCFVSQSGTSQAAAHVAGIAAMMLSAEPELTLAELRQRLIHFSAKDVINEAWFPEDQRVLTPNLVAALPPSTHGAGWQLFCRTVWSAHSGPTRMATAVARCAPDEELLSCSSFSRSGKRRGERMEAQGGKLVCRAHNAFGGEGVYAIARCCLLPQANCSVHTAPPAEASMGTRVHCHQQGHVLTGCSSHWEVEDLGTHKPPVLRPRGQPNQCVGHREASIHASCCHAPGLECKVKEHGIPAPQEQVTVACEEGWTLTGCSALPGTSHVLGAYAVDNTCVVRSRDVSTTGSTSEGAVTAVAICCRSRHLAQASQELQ
T2 sequence (Q8NBP7 31-152 partner limits assumed): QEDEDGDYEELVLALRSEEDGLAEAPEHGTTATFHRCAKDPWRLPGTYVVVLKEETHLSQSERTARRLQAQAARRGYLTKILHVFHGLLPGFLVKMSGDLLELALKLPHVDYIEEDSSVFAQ
T1 sequence (Q8NBP7 153-692): as the sequence (Q8NBP7 153-692 D374Y) above, with Y222D counted along it
T1 sequence (Q8NBP7 31-152 partner limits assumed): as the sequence (Q8NBP7 31-152 partner limits assumed) above

IC50 [1] | Structure (SMILES) | increase of LDL uptake ([2]; 0.1 μM compound) | increase of LDL uptake ([2]; 1 μM compound) | Inhibition of PCSK9-LDLR binding ([1]; IC50 curves)
0.1 to 1 µM | Cc1cn(-c2cc(CN3CCC[C@H](N)C3)cc(NC(=O)c3ccc(C)c(Oc4ccccc4)c3)c2)cn1 [Example 30, (S)—N-(3-((3-aminopiperidin-1-yl)methyl)-5-(4-methyl-1H-imidazol-1-yl)phenyl)-4-methyl-3-phenoxybenzamide] | Significant increases in LDL uptake equivalent to untreated cells | Significant increases in LDL uptake equivalent to untreated cells | 
< 0.1 µM | Cc1cn(-c2cc(NC(=O)c3ccc(C)c(Oc4cccc5ccncc45)c3)cc(N3CCN(C)CC3)c2)cn1 [Example 27, 3-(isoquinolin-8-yloxy)-4-methyl-N-(3-(4-methyl-1H-imidazol-1-yl)-5-(4-methylpiperazin-1-yl)phenyl)benzamide] | Significant increases in LDL uptake equivalent to untreated cells | Significant increases in LDL uptake equivalent to untreated cells | 
10 to 100 µM | Cc1cn(-c2cc(NC(=O)c3ccc(C)c(Nc4nccc(-c5ccc(F)cc5)n4)c3)cc(N3CCOCC3)c2)cn1 [Example 23, 3-((4-(4-fluorophenyl)pyrimidin-2-yl)amino)-4-methyl-N-(3-(4-methyl-1H-imidazol-1-yl)-5-morpholinophenyl)benzamide] |  |  | 
0.1 to 1 µM | Cc1cn(-c2cc(CN3CCN(C)CC3)cc(NC(=O)c3ccc(C)c(Nc4nccc(-c5ccccc5)n4)c3)c2)cn1 [Example 7, 4-methyl-N-(3-(4-methyl-1H-imidazol-1-yl)-5-((4-methylpiperazin-1-yl)methyl)phenyl)-3-((4-phenylpyrimidin-2-yl)amino)benzamide] |  |  | 
> 100 µM | Cc1ccc(C(=O)Nc2cccc(C(F)(F)F)c2)cc1Nc1nccc(-c2cccnc2)n1 [Example 17, 4-methyl-3-((4-(pyridin-3-yl)pyrimidin-2-yl)amino)-N-(3-(trifluoromethyl)phenyl)benzamide] |  |  | 

The next lines start with the molecule.

Structure (SMILES) | IC50 [1] | increase of LDL uptake ([2]; 0.1 μM compound) | increase of LDL uptake ([2]; 1 μM compound) | Inhibition of PCSK9-LDLR binding ([1]; IC50 curves)
Cc1cn(-c2cc(NC(=O)c3ccc(C)c(OCc4ccccc4)c3)cc(C(F)(F)F)c2)cn1 [Example 14, 3-(benzyloxy)-4-methyl-N-(3-(4-methyl-1H-imidazol-1-yl)-5-(trifluoromethyl)phenyl)benzamide] | 10 to 100 µM |  |  | 
Cc1cc(-c2cc(NC(=O)c3ccc(C)c(Nc4nccc(-c5ccc(F)cc5)n4)c3)cc(N3CCN(C)CC3)c2)on1 [Example 29, 3-((4-(4-fluorophenyl)pyrimidin-2-yl)amino)-4-methyl-N-(3-(3-methylisoxazol-5-yl)-5-(4-methylpiperazin-1-yl)phenyl)benzamide] | 10 to 100 µM |  |  | 
Cc1cn(-c2cc(CCS(N)(=O)=O)cc(NC(=O)c3ccc(C)c(Nc4nccc(-c5ccccc5)n4)c3)c2)cn1 [Example 10, 4-methyl-N-(3-(4-methyl-1H-imidazol-1-yl)-5-(2-sulfamoylethyl)phenyl)-3-((4-phenylpyrimidin-2-yl)amino)benzamide] | 10 to 100 µM |  |  | 
COCCN1CCN(c2cc(NC(=O)c3ccc(C)c(Oc4ccccc4)c3)cc(-n3cnc(C)c3)c2)CC1 [Example 26, N-(3-(4-(2-methoxyethyl)piperazin-1-yl)-5-(4-methyl-1H-imidazol-1-yl)phenyl)-4-methyl-3-phenoxybenzamide] |  |  |  | * (Starred values refer to levels of inhibition of binding by less than 35% at the highest concentration tested, due either to solubility limitations or dynamic range limitations of the assay.)
